Patent publication US4565823A, “Medical agent for suppressing arteriosclerosis” (Yamanouchi Pharmaceutical Co., Ltd., priority 1982, dated 1986)
Where a name gives a salt, the structure may show the parent alone.

How the values were obtained:
[1] = system: cholesterol levels in the serum; assay: Effect on cholesterol levels in the serum (normal rats); type: in vivo; details: oral
[2] = system: cholesterol levels in the serum; assay: Effect on cholesterol levels in the serum (hypercholesterolemia rats); type: in vivo, Male Sprague-Dawley rats; details: for HDL chol. / HDL chol. / LDL + VLDL chol. / LDL + VLDL chol. / T. chol. (total cholesterol): oral; for effect on HDL cholesterol (words) / effect on total cholesterol in the serum (words): rat, in vivo
Method: Male Sprague-Dawley rats (JCL®, Nippon Clea Co. Ltd., Tokyo, Japan) weighing 90-100 g were fed semipurified diet containing 10% coconut oil, 1.5% cholesterol and 0.5% cholic acid. Three days after the start of feeding, the rats are allocated at random by the body weight to multiple groups each consisting 6-8 rats. On day 4 through 7, the drug suspension in 0.5% methylcellulose was orally given daily. […] Following the final dose, the rats were fasted overnight (approximately 16 hours). […] Serum was obtained by centrifugation at 1,600 xg for 15 min and stored at 4° C. in plastic tubes. The amount of total cholesterol and HDL cholesterol in the serum were determined. The determination of the total cholesterol was practiced by the method described in Schettler, G & Nussel; "Arbeitsmed. Sozialmed. Praventivmed." 10, 25 (1975) and the determination of HDL cholesterol was practiced by the method described in T. T. Ishikawa et al; "Lipids", 11, 628 (1976).

[3] = acute toxicity, mice (ICR); details: mouse, in vivo
Excerpt: (§1) Nicardipine hydrochloride is a low toxicity compound, and this fact is confirmed by acute toxicity examination experiment.

[4] = acute toxicity, rats (Wister); details: rat, in vivo
Excerpt: as §1

[5] = acute toxicity, rats (S.D.); details: rat, in vivo
Excerpt: as §1

[6] = acute toxicity, dog (mongrel); type: in vivo; details: in vivo, iv, only a range in parentheses printed
Excerpt: as §1

dog (mongrel) = assay: acute toxicity, dog (mongrel); type: in vivo; details: p.o.
Excerpt: as §1

mice, rats, dog = assay: acute toxicity examination (overall statement); details: in vivo
Excerpt: as §1

[7] = system: aortic smooth muscle cell; assay: 12-HETE-associated aortic smooth muscle cell migration, filter membrane technique in modified Boyden chambers; type: cell-based; details: 6×10^-15 g/ml 12-HETE, 37° C.
Excerpt: The effect of nicardipine on 12-HETE-associated aortic smooth muscle cell migration can be examined by measuring the migration of aortic smooth muscle cell by filter membrane technique in modified Boyden chambers as follows:
5×10^5 of the smooth muscle cells were suspended in Ca^2+ -containing culture medium supplemented with 5% calf serum containing various concentration of nicardipine. Control cultures contained the same volume, a final concentration of 1% (v/v), of […]. The suspensions of the smooth muscle cells were placed in the upper compartment of the chamber. The lower compartment of the chamber contained the same culture medium supplemented with 6×10^-15 g/ml of 12-HETE and 5% calf serum containing no nicardipine. The cells was incubated at 37° C. As control, medium with the same concentration of solvent (1% ethanol) containing no 12-HETE was used. Smooth muscle cell migration was quantitated microscopically by counting the number of cells that migrated into the filter. In each experiment, 10 high-power fields in 5 replicate cultures were examined to determine the number of cells that had migrated into the filers. Cell migration was expressed as cells/10 HPF (high-power fields) in FIG. 1.

[8] = hypercholesterolemia rats, 10 mg/kg
[9] = hypercholesterolemia rats, 30 mg/kg
[10] = hypercholesterolemia rats, 100 mg/kg
[11] = listed as nicardipine hydrochloride
[12] = hypercholesterolemia rats, 50 mg/kg
[13] = hypercholesterolemia rats, 200 mg/kg

## COC(=O)C1=C(C)NC(C)=C(C(=O)OCCN(C)Cc2ccccc2)C1c1cccc([N+](=O)[O-])c1 (centres unmarked) [Nicardipine hydrochloride]
[1]; 10 mg/kg
  HDL chol.: 29.6 ± 1.4 mg/dL
  HDL chol. / LDL + VLDL chol.: 3.020
  LDL + VLDL chol.: 9.8 ± 1.9 mg/dL
  T. chol. (total cholesterol): 39.4 ± 2.0 mg/dL
[1]; 30 mg/kg
  HDL chol.: 37.2 ± 2.7 mg/dL
  HDL chol. / LDL + VLDL chol.: 10.941
  LDL + VLDL chol.: 3.4 ± 1.6 mg/dL
  T. chol. (total cholesterol): 41.3 ± 4.7 mg/dL
[1]; 100 mg/kg
  HDL chol.: 39.8 ± 4.3 mg/dL
  HDL chol. / LDL + VLDL chol.: 14.214
  LDL + VLDL chol.: 2.8 ± 1.2 mg/dL
  T. chol. (total cholesterol): 40.8 ± 5.9 mg/dL
[2]; hypercholesterolemia rats
  effect on LDL chol: reduces remarkably LDL chol
[2]; [8]
  HDL chol.: 27.0 ± 1.8 mg/dL
  HDL chol. / LDL + VLDL chol.: 0.090
  LDL + VLDL chol.: 299.4 ± 52.8 mg/dL
  T. chol. (total cholesterol): 326.4 ± 52.0 mg/dL
[2]; [9]
  HDL chol.: 28.0 ± 0.5 mg/dL
  HDL chol. / LDL + VLDL chol.: 0.067
  LDL + VLDL chol.: 420.6 ± 53.2 mg/dL
  T. chol. (total cholesterol): 448.6 ± 52.8 mg/dL
[2]; [10]
  HDL chol.: 47.0 ± 1.8 mg/dL
  HDL chol. / LDL + VLDL chol.: 0.250
  LDL + VLDL chol.: 188.0 ± 26.4 mg/dL
  T. chol. (total cholesterol): 246.0 ± 24.6 mg/dL
[2]; [11]
  effect on HDL cholesterol (words): increases selectively HDL chol
  effect on total cholesterol in the serum (words): reduce the amount of total cholesterol in the serum
[3]; iv, mice (ICR) female
  LD50: 19.9 mg/kg
[3]; po, mice (ICR) female
  LD50: 650 mg/kg
[3]; po, mice (ICR) male
  LD50: 634 mg/kg
[3]; sc, mice (ICR) female
  LD50: 710 mg/kg
[3]; sc, mice (ICR) male
  LD50: 540 mg/kg
[4]; iv, rats (Wister) female
  LD50: 17.2 mg/kg
[4]; iv, rats (Wister) male
  LD50: 15.5 mg/kg
[4]; po, rats (Wister) female
  LD50: 184 mg/kg
[4]; po, rats (Wister) male
  LD50: 187 mg/kg
[4]; sc, rats (Wister) female
  LD50: 606 mg/kg
[4]; sc, rats (Wister) male
  LD50: 677 mg/kg
[5]; iv, rats (S.D.) female
  LD50: 25 mg/kg
[5]; iv, rats (S.D.) male
  LD50: 18.1 mg/kg
[5]; po, rats (S.D.) female
  LD50: 557 mg/kg
[5]; po, rats (S.D.) male
  LD50: 643 mg/kg
[6]
  LD50: 5 to 8.1 mg/kg
Dog (mongrel)
  MLD: > 60 mg/kg
mice, rats, dog
  acute toxicity: low toxicity

## CCOC(=O)C(C)(C)Oc1ccc(Cl)cc1 [clofibrate]
[1]; 50 mg/kg
  HDL chol.: 26.5 ± 2.5 mg/dL
  HDL chol. / LDL + VLDL chol.: 1.828
  LDL + VLDL chol.: 14.5 ± 1.0 mg/dL
  T. chol. (total cholesterol): 42.7 ± 2.3 mg/dL
[1]; 100 mg/kg
  HDL chol.: 30.3 ± 3.1 mg/dL
  HDL chol. / LDL + VLDL chol.: 3.258
  LDL + VLDL chol.: 9.3 ± 1.5 mg/dL
  T. chol. (total cholesterol): 39.7 ± 2.7 mg/dL
[1]; 200 mg/kg
  HDL chol.: 22.8 ± 2.7 mg/dL
  HDL chol. / LDL + VLDL chol.: 1.664
  LDL + VLDL chol.: 13.7 ± 2.1 mg/dL
  T. chol. (total cholesterol): 36.5 ± 4.4 mg/dL
[2]; [12]
  HDL chol.: 13.8 ± 1.0 mg/dL
  HDL chol. / LDL + VLDL chol.: 0.036
  LDL + VLDL chol.: 379.6 ± 92.6 mg/dL
  T. chol. (total cholesterol): 412.0 ± 77.8 mg/dL
[2]; [10]
  HDL chol.: 21.0 ± 2.5 mg/dL
  HDL chol. / LDL + VLDL chol.: 0.100
  LDL + VLDL chol.: 210.4 ± 55.8 mg/dL
  T. chol. (total cholesterol): 231.0 ± 54.2 mg/dL
[2]; [13]
  HDL chol.: 19.3 ± 2.8 mg/dL
  HDL chol. / LDL + VLDL chol.: 0.065
  LDL + VLDL chol.: 298.0 ± 66.2 mg/dL
  T. chol. (total cholesterol): 317.4 ± 64.4 mg/dL

## COC(=O)C1=C(C)NC(C)=C(C(=O)OCCN(C)Cc2ccccc2)C1c1cccc([N+](=O)[O-])c1 (centres unmarked) [nicardipine]
[2]
  effect on HDL cholesterol (words): elevating high density lipoprotein (HDL) selectivity
  effect on total cholesterol in the serum (words): reducing cholesterol level increased in the serum
[7]
  inhibition of 12-HETE-associated aortic smooth muscle cell migration: inhibits 12-HETE-associated aortic smooth muscle cell migration (aortic smooth muscle cell migration induced by 12-L-hydroxy-5,8,10,14-eicosotetraenoic acid) significantly

## COc1ccc(Cc2nccc3cc(OC)c(OC)cc23)cc1OC [papaverine]
[3]; iv, mice (ICR) male
  LD50: 27 mg/kg
[4]; iv, rats (Wister) male
  LD50: 13.3 mg/kg
